Here are results for six substances from US8354498B2, “CD4 mimic peptides and their uses” (Commissariat a l'Energie Atomique, priority 2006, dated 2013).

Read-outs that look alike come from different tables or passages of the source.

In experiment [1] the test system is gp120 isolates SF2, SF162, Bal, IIIB, YU2. Description: Direct binding by fluorescence anisotropy, comparison over all isolates. The following applies: depending on gp120 isolates. Further details: species or system HIV-1. The method, then:
Direct binding assays of fluorescent peptides were performed in triplicates by adding 10 μL of 0.5 nM Alexa-labeled mini-proteins and 10 μL of serial dilutions (two-thirds dilutions in 16 wells, starting at 200 nM) of gp120 SF2, SF162, BaL, IIIB and YU2. Collected data were fitted to the following equation using a non-linear regression program (Prism, GraphPad software Inc.):
The biphenylalanine in position 23 led to a 3 fold gain, consistent with the previously observed difference between CD4M33 and its [Phe^23]M33 mutant (Huang et al., Structure, 2005, 13, 755-768).

Experiment [2] concerns HIV-1 NL4.3 (X4). The class given is cell-based. The method, then:
The antiviral activity of the molecules in MT-4 cells was determined using a tetrazolium-based colorimetric assay (Hase et al., Biochem. Pharmacol., 2005, 70, 752-761). Briefly, five-fold dilutions of the test compounds in 100 μL of medium were added to duplicate wells of 96-well flat bottom plates (IWAKI). Then 6×10^4 MT-4 cells were added in 50 μL of medium, and finally 50 μL of diluted HIV-1 stocks was added to each well. Cytopathic effect induced by the virus was monitored by daily microscopic evaluation of the virus-infected cell cultures. At day 4-5 after infection, the cell viability was assessed via the in situ reduction of the tetrazolium compound MTS, using the CellTiter 96® AQueous one solution cell proliferation assay (PROMEGA). The absorbance was then measured at 490 nm with a 96-well plate reader and compared with four cell control replicates (cells without virus and drugs) and four virus control wells (virus-infected cells without drugs). The IC50 was calculated for each compound from the dose-response curve.
(§1) The experimental procedures are as described in example 1.

Experiment [3] deals with HIV-1 NL4.3(X4). The class given is cell-based. The method, then:
The acute infection assays in primary cells were performed as described by Schols and coworkers (Balzarini et al., J. Biol. Chem., 2005, 280, 41005-41014). Briefly, PBMC from healthy donors were isolated by density gradient centrifugation and stimulated by phytohemagglutinin (PHA; SIGMA) in RPMI 1640 medium supplemented with 10% foetal calf serum (FCS; BIOCHROM). PBMC were infected by exposing cells (0.5×10^6/well; 48-well plate) to the viral stocks added at a final dose of 250 pg of p24/mL in the presence or the absence of the inhibitors. Cell supernatant was collected at day 12, and HIV-1 core Ag in the culture supernatant was analysed by a p24 Ag enzyme-linked immunosorbent assay kit (PERKIN ELMER).
as §1

For experiment [4], the target named is T1, gp120SF162 binding to CCR5+-CHO cells (Human immunodeficiency virus type 1 group M subtype B, UniProt P19550).
T1 construct: R5-tropic SF162 and Dual-tropic SF2 recombinant gp120s were produced in mammalian cells (CHO); made in house; host or cells: gp120: CHO; CCR5: transfected CHO-K1 cells
Description: FACS analysis of gp120 binding to CCR5+-CHO cells in presence of CD4 mimics. The class given is cell-based, HIV-1. The note with it: gp120SF162 pre-incubated with mini-protein. From the text:
FIG. 7 illustrates the FACS analysis of the binding of recombinant envelope gp120 to CCR5^+-CHO cells in absence or in presence of various CD4-mimics, in comparison with soluble CD4.
FIG. 13 illustrates the FACS analysis of the binding of recombinant envelope gp120 to CCR5^+-CHO cells in absence or in presence of various CD4-mimics in comparison with soluble CD4.
FIG. 19 illustrates the FACS analysis of the binding of gp120SF162 to CCR5^+ CHO cells in absence or in presence of CD4M48 monomer or hetero-bivalent CD4M48−heparin. The ability of gp120 in complex with CD4M48 alone, CD4M48 covalently bound to heparin (noted M48−heparin), CD4M48 in presence of free LMW heparin (1:1) (noted M48+heparin) to bind to cellular co-receptor CCR5 was investigated.
Adherent CHO-K1 cells expressing CCR5 (Samson et al., Biochemistry, 1996, 35, 3362-3367; Blanpain et al., Blood, 2000, 96, 1638-1645) were used to analyze gp120SF162 conformational change in complex with different mini-proteins, by FACS (BECKTON DICKINSON). Briefly, 0.03 μg of gp120SF162 were pre-incubated overnight at 4° C. in absence or in presence of 10 nM CD4 or 10 nM mini-proteins and further added to 2×10^5 cells in HAM F12 supplemented with 10% SVF, 1% penicillin/streptomycin. […] After final wash, cells were analyzed for envelope binding by FACS.

For experiment [5], the system named is gp120. As for the experimental part:
Fluorescence anisotropy was determined after 40 min equilibration time at room temperature, using 485 nm excitation and 530 nm emission filters and an additional 505 nm dichroic filter. All experiments were performed in duplicate.
Fluorescence anisotropy measurements were based on the assessment of the rotational motions of species. Whereas the CD4-mimic tumbles very fast in solution randomizing excited molecules, once it binds to gp120 envelopes, the excited mini-protein stays aligned during the process of emission and as a result, emitted light is polarized.

The subject of experiment [6] is gp120 (SF162, YU2, SF2, LAI, HXB2) binding to CD4i antibody 48d. Description: SPR analysis of binding of gp120 complexes to immobilized CD4i Ab 48d. Further details: species or system HIV-1. The note with it: 50 nM gp120 premixed with 3 eq. As for the experimental part:
120 μL of 50 nM gp120 preincubated with 3 eq. […] (A) gp120SF162, (B) gp120LAI. (C) gp120YU2.
The different gp120 (SF162, YU2, LAI, HXB2, SF2) were premixed at a final concentration of 50 nM with 3 eq. CD4M48, 3 eq. CD4M48 in presence of 3 eq. LMW heparin or 3 eq. covalent CD4M48−heparin for 60 min before injection at 20 μL/min. All sensorgrams were corrected by substracting the signal from reference flow cell.
(In general: Surface plasmon resonance follows binding to a sensor surface in real time, without labels.)

Experiment [7] concerns HIV-1 6393(R5). Description: Acute infection assay in PM1 cells. The class given is cell-based. The note with it: day 5, read-out: Antiviral activity IC50. As for the experimental part:
(§2) For the acute infection assay in PM1 cell line (Lusso et al., J. virol., 1995, 69, 3712-3720), an immortalized CD4^+CCR5^+CXCR4^+ T-cell clone susceptible of a wide variety of HIV-1 strains, the cells were seeded at 2.5×10^4 cells/well into flat-bottom 96-well plates in 200 μL of complete RPMI medium. Cells were then exposed to the viral stocks (˜50 TCID50/well) pre-treated or not with serial dilutions of inhibitors for 30 min. After overnight incubation at 37° C., the cells were washed twice and recultured in complete RPMI medium supplemented with the appropriate inhibitors. After 3, 5 or 7 days, the culture supernatant was removed […] p24 antigen testing and replaced with fresh medium containing the appropriate inhibitors. The extracellular p24 concentrations were measured by capture ELISA, using a sandwich of specific antibodies (AALTO BIO REAGENTS).
as §1

In experiment [8] the test system is HIV-1 714(R5). Description: Acute infection assay in PM1 cells. The note with it: day 5, read-out: Antiviral activity IC50. Type of experiment: cell-based. The method, then:
as §2, §1

Experiment [9] has as its system HIV-1 BaL(R5). Description: Acute infection assay in PM1 cells. Type of experiment: cell-based. The note with it: day 5, read-out: Antiviral activity IC50. The method, then:
as §2, §1

The target of experiment [10] is gp120SF162 (Human immunodeficiency virus type 1 group M subtype B, UniProt P19550). The following applies: injected at 125 nM; curves normalized to CD4M48. As for the experimental part: 100 μL of monomer, dimers and tetramers were passed over the surface at 20 μL/min after which dissociation of bound inhibitors was monitored for 15 min.
All experiments were conducted at 25° C. with 20 μL/min flow rate in HBS (50 mM HEPES-buffered saline, 3 mM EDTA, 0.05% Biacore surfactant P20, pH 7.4) with a BIACORE 3000 instrument (BIACORE AB).
For binding of multimers to gp120, gp120SF162 was immobilized on a CM5 sensor chip at 9000 RU by the amine coupling kit provided by the manufacturer.

The mark [11] stands for this setting: MT-4 cells, NL4.3 (X4), day 5, read-out: Antiviral activity IC50.

Regarding “CD4M48-F1: CD4M48 labeled with Alexa-488 probe at Lys11 (XNLHFCQLRCKSLGLLGRCAXTFCACV; not fully specified; D-residues)”, in [1], the “Improvement of affinity (Kd) compared to CD4M33” value is given as 1.1 to 6.1 fold.
For the substance Enfuvirtide, the values for the IC50 in experiment [2] (NL4.3(X4)) and in experiment [3] were 11 nM and 13 nM, respectively.
For “CD4M47-F1: CD4M47 labeled with Alexa-488 probe at Lys11”, in experiment [1], the “Improvement of affinity (Kd) compared to CD4M33” value is listed as 5.2- to 12.3 fold.
As to “CD4M48-hep: hetero-bivalent inhibitor: CD4M48-hydrazino (Lys-11) covalently ligated to heparin mono-aldehyde (XNLHFCQLRCKSLGLLGRCAXTFCACV; not fully specified; D-residues)”, the “Binding of gp120 to CCR5+-CHO cells induced by the mimic (conformational change of gp120)” value in experiment [4] is recorded as “prevents the binding of the complex to CCR5+ cells”. Besides, in experiment [5], the “Inhibition of CD4M33-F1 binding to gp120 (competitive polarization)” value was “nanomolar range”. Moreover, the “Recognition of the gp120 complex by CD4i Ab 48d” value in experiment [6] is “inhibit completely the recognition of the complex by CD4i-Ab 48d”.
On to “CD4M48T100: CD4M48 tetramer on polylysine construct with 100 Å PEGylated linkers (XNLHFCQLRCKSLGLLGRCAXTFCACV; not fully specified; D-residues)”, for which the IC50 (commonly the concentration at which inhibition is half-maximal) in experiment [7] was 55 nM; in experiment [8] it was 360 nM; in experiment [9] it was 45 nM; in experiment [2] (setting [11]) it was 22 nM. Moreover, the “Dissociation from immobilized gp120 (off-rate) compared to monomer CD4M48” value in experiment [10] is “slowed-down dissociation phase”.
As for “CD4M48T50: CD4M48 tetramer on polylysine construct with 50 Å PEGylated linkers”, the IC50 in experiment [7] was 350 nM; in [8], 680 nM; in experiment [9], 310 nM; in experiment [2] (setting [11]), 31 nM; in [3] (PBMC, day 12, read-out: Antiviral activity IC50), less than 26 nM.
